Results reported in ChEMBL document CHEMBL3045199, “Synthesis of some (E)-6-[2-(furan-2-yl)ethenyl]-1,2,4-triazin-5-ones and their biological evaluation as antitumor agents” (2013).

Legend:
Assay type in all cases: functional
MDA-MB-231 = experiment: Cytotoxicity against Homo sapiens (human) MDA-MB-231 cells after 48 hr by SRB assay; settings: MDA-MB-231, 48 h
SN12C = experiment: Cytotoxicity against Homo sapiens (human) SN12C cells after 48 hr by SRB assay
SF-295 = experiment: Cytotoxicity against Homo sapiens (human) SF295 cells after 48 hr by SRB assay; settings: SF-295, 48 h
RPMI-8226 = experiment: Cytotoxicity against Homo sapiens (human) RPMI8226 cells after 48 hr by SRB assay; settings: RPMI-8226, 48 h
NCI-H460 = experiment: Cytotoxicity against Homo sapiens (human) NCI-H460 cells after 48 hr by SRB assay; settings: NCI-H460, 48 h
OVCAR-4 = experiment: Cytotoxicity against Homo sapiens (human) OVCAR4 cells after 48 hr by SRB assay; settings: OVCAR-4, 48 h
CAKI-1 = experiment: Cytotoxicity against Homo sapiens (human) Caki1 cells after 48 hr by SRB assay; settings: CAKI-1, 48 h
K562 = experiment: Cytotoxicity against Homo sapiens (human) K562 cells after 48 hr by SRB assay; settings: K562, 48 h
IGROV-1 = experiment: Cytotoxicity against Homo sapiens (human) IGROV1 cells after 48 hr by SRB assay; settings: IGROV-1, 48 h
NCI-H226 = experiment: Cytotoxicity against Homo sapiens (human) NCI-H226 cells after 48 hr by SRB assay; settings: NCI-H226, 48 h
SK-MEL-28 = experiment: Cytotoxicity against Homo sapiens (human) SK-MEL-28 cells after 48 hr by SRB assay; settings: SK-MEL-28, 48 h
OVCAR-5 = experiment: Cytotoxicity against Homo sapiens (human) OVCAR5 cells after 48 hr by SRB assay; settings: OVCAR-5, 48 h
HT-29 = experiment: Cytotoxicity against Homo sapiens (human) HT-29 cells after 48 hr by SRB assay; settings: HT-29, 48 h
T47D = experiment: Cytotoxicity against Homo sapiens (human) T47D cells after 48 hr by SRB assay
M14 = experiment: Cytotoxicity against Homo sapiens (human) M14 cells after 48 hr by SRB assay; settings: M14, 48 h
SF-268 = experiment: Cytotoxicity against Homo sapiens (human) SF268 cells after 48 hr by SRB assay; settings: SF-268, 48 h
HL-60(TB) = experiment: Cytotoxicity against Homo sapiens (human) HL-60(TB) cells after 48 hr by SRB assay; settings: HL-60, 48 h
MCF7 = experiment: Cytotoxicity against Homo sapiens (human) MCF7 cells after 48 hr by SRB assay; settings: MCF7, 48 h
A498 = experiment: Cytotoxicity against Homo sapiens (human) A498 cells after 48 hr by SRB assay; settings: A498, 48 h
OVCAR-8 = experiment: Cytotoxicity against Homo sapiens (human) OVCAR8 cells after 48 hr by SRB assay; settings: OVCAR-8, 48 h
HCT-15 = experiment: Cytotoxicity against Homo sapiens (human) HCT15 cells after 48 hr by SRB assay; settings: HCT-15, 48 h
DU-145 = experiment: Cytotoxicity against Homo sapiens (human) DU145 cells after 48 hr by SRB assay; settings: DU-145, 48 h
HOP-62 = experiment: Cytotoxicity against Homo sapiens (human) HOP62 cells after 48 hr by SRB assay; settings: HOP-62, 48 h
786-0 = experiment: Cytotoxicity against Homo sapiens (human) 786-0 cells after 48 hr by SRB assay; settings: 786-0, 48 h
SNB-75 = experiment: Cytotoxicity against Homo sapiens (human) SNB75 cells after 48 hr by SRB assay; settings: SNB-75, 48 h
SK-MEL-5 = experiment: Cytotoxicity against Homo sapiens (human) SK-MEL-5 cells after 48 hr by SRB assay; settings: SK-MEL-5, 48 h
NCI-H23 = experiment: Cytotoxicity against Homo sapiens (human) NCI-H23 cells after 48 hr by SRB assay; settings: NCI-H23, 48 h
SW-620 = experiment: Cytotoxicity against Homo sapiens (human) SW620 cells after 48 hr by SRB assay; settings: SW-620, 48 h
EKVX = experiment: Cytotoxicity against Homo sapiens (human) EKVX cells after 48 hr by SRB assay
HCC 2998 = experiment: Cytotoxicity against Homo sapiens (human) HCC2998 cells after 48 hr by SRB assay; settings: HCC 2998, 48 h
SF-539 = experiment: Cytotoxicity against Homo sapiens (human) SF539 cells after 48 hr by SRB assay; settings: SF-539, 48 h
OVCAR-3 = experiment: Cytotoxicity against Homo sapiens (human) OVCAR3 cells after 48 hr by SRB assay; settings: OVCAR-3, 48 h
SK-MEL-2 = experiment: Cytotoxicity against Homo sapiens (human) SK-MEL-2 cells after 48 hr by SRB assay; settings: SK-MEL-2, 48 h
MOLT-4 = experiment: Cytotoxicity against Homo sapiens (human) MOLT4 cells after 48 hr by SRB assay; settings: MOLT-4, 48 h
[1] = read-out: LC50 (the source's name)

Nc1cc(-c2ccc(Cl)cc2)nn1-c1nc(=O)c(/C=C/c2ccco2)n[nH]1
LC50 (lethal concentration, 50%) (MDA-MB-231): > 100 µM | TGI (MDA-MB-231): > 100 µM | GI50 (MDA-MB-231; read-out: GI50): 13.9 µM | GI50 (MDA-MB-231; read-out: pGI50 (converted)): 13.8 µM | TGI (SN12C): > 100 µM | GI50 (SN12C; read-out: GI50): 18.7 µM | CC50 (SN12C; [1]): > 100 µM | GI50 (SN12C; read-out: pGI50 (converted)): 18.6 µM | TGI (SF-295): 24.3 µM | GI50 (SF-295; read-out: GI50): 1.58 µM | CC50 (SF-295; [1]): > 100 µM | GI50 (SF-295; read-out: pGI50 (converted)): 1.58 µM | LC50 (RPMI-8226): > 100 µM | TGI (RPMI-8226): 23.2 µM | GI50 (RPMI-8226; read-out: GI50): 3.03 µM | GI50 (RPMI-8226; read-out: pGI50 (converted)): 3.02 µM | TGI (NCI-H460): 13.9 µM | GI50 (NCI-H460; read-out: GI50): 1.88 µM | CC50 (NCI-H460; [1]): > 100 µM | GI50 (NCI-H460; read-out: pGI50 (converted)): 1.86 µM | LC50 (OVCAR-4): > 100 µM | TGI (OVCAR-4): 28.8 µM | GI50 (OVCAR-4; read-out: GI50): 3.45 µM | GI50 (OVCAR-4; read-out: pGI50 (converted)): 3.47 µM | LC50 (CAKI-1): > 100 µM | TGI (CAKI-1): 4.6 µM | GI50 (CAKI-1; read-out: GI50): 0.37 µM | GI50 (CAKI-1; read-out: pGI50 (converted)): 0.372 µM | LC50 (K562): > 100 µM | TGI (K562): 23 µM | GI50 (K562; read-out: GI50): 2.79 µM | GI50 (K562; read-out: pGI50 (converted)): 2.75 µM | LC50 (concentration killing 50% of cells) (IGROV-1): > 100 µM | TGI (IGROV-1): 37.8 µM | GI50 (IGROV-1; read-out: GI50): 4.89 µM | GI50 (IGROV-1; read-out: pGI50 (converted)): 4.9 µM | LC50 (lethal concentration, 50% cell kill) (NCI-H226): > 100 µM | TGI (NCI-H226): 75.6 µM | GI50 (NCI-H226; read-out: GI50): 12.2 µM | GI50 (NCI-H226; read-out: pGI50 (converted)): 12.3 µM | LC50 (SK-MEL-28): > 100 µM | TGI (SK-MEL-28): 82.3 µM | GI50 (SK-MEL-28; read-out: GI50): 4.06 µM | GI50 (SK-MEL-28; read-out: pGI50 (converted)): 4.07 µM | LC50 (50% lethal concentration) (OVCAR-5): > 100 µM | TGI (OVCAR-5): 82 µM | GI50 (OVCAR-5; read-out: GI50): 5.49 µM | GI50 (OVCAR-5; read-out: pGI50 (converted)): 5.5 µM | TGI (HT-29): > 100 µM | GI50 (HT-29; read-out: GI50): 7.82 µM | CC50 (HT-29; [1]): > 100 µM | GI50 (HT-29; read-out: pGI50 (converted)): 7.76 µM | LC50 (T47D): > 100 µM | TGI (T47D): 44.2 µM | GI50 (T47D; read-out: GI50): 4.37 µM | GI50 (T47D; read-out: pGI50 (converted)): 4.37 µM | LC50 (M14): > 100 µM | TGI (M14): 31.7 µM | GI50 (M14; read-out: GI50): 2.27 µM | GI50 (M14; read-out: pGI50 (converted)): 2.29 µM | TGI (SF-268): 25.1 µM | GI50 (SF-268; read-out: GI50): 1.99 µM | CC50 (SF-268; [1]): > 100 µM | GI50 (SF-268; read-out: pGI50 (converted)): 2 µM | LC50 (HL-60(TB)): > 100 µM | TGI (HL-60(TB)): 8.19 µM | GI50 (HL-60(TB); read-out: GI50): 2.83 µM | GI50 (HL-60(TB); read-out: pGI50 (converted)): 2.82 µM | LC50 (concentration killing 50% of cells) (MCF7): > 100 µM | TGI (MCF7): 50.4 µM | GI50 (MCF7; read-out: GI50): 4.05 µM | GI50 (MCF7; read-out: pGI50 (converted)): 4.07 µM | LC50 (A498): > 100 µM | TGI (A498): 6.62 µM | GI50 (A498; read-out: GI50): 1.62 µM | GI50 (A498; read-out: pGI50 (converted)): 1.62 µM | TGI (OVCAR-8): 65.8 µM | GI50 (OVCAR-8; read-out: GI50): 4.47 µM | CC50 (OVCAR-8; [1]): > 100 µM | GI50 (OVCAR-8; read-out: pGI50 (converted)): 4.47 µM | TGI (HCT-15): > 100 µM | GI50 (HCT-15; read-out: GI50): 1.89 µM | CC50 (HCT-15; [1]): > 100 µM | GI50 (HCT-15; read-out: pGI50 (converted)): 1.91 µM | LC50 (DU-145): 55.4 µM | TGI (DU-145): 18.3 µM | GI50 (DU-145; read-out: GI50): 3.01 µM | GI50 (DU-145; read-out: pGI50 (converted)): 3.02 µM | LC50 (concentration killing 50% of cells) (HOP-62): > 100 µM | TGI (HOP-62): 76.8 µM | GI50 (HOP-62; read-out: GI50): 5.77 µM | GI50 (HOP-62; read-out: pGI50 (converted)): 5.75 µM | LC50 (786-0): > 100 µM | TGI (786-0): 21.2 µM | GI50 (786-0; read-out: GI50): 3.98 µM | GI50 (786-0; read-out: pGI50 (converted)): 3.98 µM | TGI (SNB-75): 37.2 µM | GI50 (SNB-75; read-out: GI50): 10.6 µM | CC50 (SNB-75; [1]): > 100 µM | GI50 (SNB-75; read-out: pGI50 (converted)): 10.7 µM | TGI (SK-MEL-5): 24.8 µM | GI50 (SK-MEL-5; read-out: GI50): 3.83 µM | CC50 (SK-MEL-5; [1]): > 100 µM | GI50 (SK-MEL-5; read-out: pGI50 (converted)): 3.8 µM | TGI (NCI-H23): 53.9 µM | GI50 (NCI-H23; read-out: GI50): 5.13 µM | CC50 (NCI-H23; [1]): > 100 µM | GI50 (NCI-H23; read-out: pGI50 (converted)): 5.13 µM | TGI (SW-620): > 100 µM | GI50 (SW-620; read-out: GI50): 5.02 µM | CC50 (SW-620; [1]): > 100 µM | GI50 (SW-620; read-out: pGI50 (converted)): 5.01 µM | TGI (EKVX): 31.1 µM | GI50 (EKVX; read-out: GI50): 3.57 µM | CC50 (EKVX; [1]): > 100 µM | GI50 (EKVX; read-out: pGI50 (converted)): 3.55 µM | TGI (HCC 2998): > 100 µM | GI50 (HCC 2998; read-out: GI50): 5.59 µM | CC50 (HCC 2998; [1]): > 100 µM | GI50 (HCC 2998; read-out: pGI50 (converted)): 5.62 µM | TGI (SF-539): 26.1 µM | GI50 (SF-539; read-out: GI50): 5.49 µM | CC50 (SF-539; [1]): > 100 µM | GI50 (SF-539; read-out: pGI50 (converted)): 5.5 µM | LC50 (50% lethal concentration) (OVCAR-3): 31.8 µM | TGI (OVCAR-3): 5.2 µM | GI50 (OVCAR-3; read-out: GI50): 1.48 µM | GI50 (OVCAR-3; read-out: pGI50 (converted)): 1.48 µM | TGI (SK-MEL-2): 77.9 µM | GI50 (SK-MEL-2; read-out: GI50): 15.6 µM | CC50 (SK-MEL-2; [1]): > 100 µM | GI50 (SK-MEL-2; read-out: pGI50 (converted)): 15.5 µM | TGI (MOLT-4): 18.5 µM | GI50 (MOLT-4; read-out: GI50): 2.01 µM | CC50 (MOLT-4; [1]): > 100 µM | GI50 (MOLT-4; read-out: pGI50 (converted)): 2 µM
